Converted amounts (≈) assume the structure as drawn.
Assays:
[1] = Inhibition of recombinant HIV-1 integrase using V1/V2 as substrate assessed as 3'-end processing of the substrate incubated for 1 hrs; parameters: species or system Human immunodeficiency virus 1
[2] = Antioxidant activity assessed as DPPH radical scavenging activity measured after 30 mins by spectrophotometric analysis; type: functional
Pseudomonas aeruginosa = assay: Antibacterial activity against Pseudomonas aeruginosa assessed as zone of inhibition incubated for 24 hrs by agar diffusion method; type: functional
Escherichia coli = assay: Antibacterial activity against Escherichia coli assessed as zone of inhibition incubated for 24 hrs by agar diffusion method; type: functional
[3] = Antioxidant activity in DOPC loaded liposomes by DPPH scavenging assay; type: physicochemical
Human alphaherpesvirus 2 = assay: Antiviral activity against Herpes simplex viruses type 2 MS infected in Monkey BGM cells; type: functional, organism-based; conditions: Human alphaherpesvirus 2, MS
Plasmodium falciparum = assay: Antimalarial activity against Plasmodium falciparum; type: functional, organism-based
[4] = Antioxidant activity in ethanol solution by DPPH scavenging assay; type: functional
[5] = test system: Mycobacterium tuberculosis; assay: Antitubercular activity against Mycobacterium tuberculosis H37 Rv ATCC 27294 incubated for 7 days by Alamar blue assay; type: functional; conditions: H37 Rv ATCC 27294, 168 h, time 7 day
[6] = Antioxidant activity assessed as DPPH radical scavenging activity measured after 30 mins; type: functional
MCF7 [7] = assay: Anticancer activity against human MCF7 cells assessed as inhibition of cell growth incubated for 24 hrs by MTT assay; type: functional, cell-based; conditions: MCF7, 24 h
Bacillus subtilis [8] = assay: Antibacterial activity against Bacillus subtilis ATCC 6633 by Mueller-Hinton broth method; type: functional
Bacillus subtilis [9] = assay: Bactericidal activity against Bacillus subtilis ATCC 6633 by Mueller-Hinton broth method; type: functional
[10] = Antioxidant activity assessed as ABTS radical scavenging activity; type: functional
[11] = Antioxidant activity assessed as DPPH radical scavenging activity; type: functional
MCF7 [12] = assay: Cytotoxicity against human MCF7 cells assessed as reduction in cell viability incubated for 72 hrs by MTT assay; type: functional, cell-based; conditions: MCF7, 72 h
HCT-116 [13] = assay: Cytotoxicity against human HCT-116 cells assessed as reduction in cell viability incubated for 72 hrs by MTT assay; type: functional, cell-based; conditions: HCT-116, 72 h
Rattus norvegicus = species: Rattus norvegicus; assay: Inhibition of tert-butylhydroperoxide induced lipid peroxidation in rat liver microsomes; type: functional, Microsome
[14] = Inhibition of recombinant HIV-1 integrase using 32-P labeled dBY-1 as substrate assessed as disintegration of substrate incubated for 1 hrs; parameters: species or system Human immunodeficiency virus 1
HCT-116 [15] = assay: Cytotoxicity against human HCT-116 cells by MTT assay; type: functional, cell-based
HepG2 = assay: Cytotoxicity against human HepG2 cells by MTT assay; type: functional, cell-based

O=C(OC[C@]1(O)C[C@@H](O)[C@@H](O)[C@H](OC(=O)c2cc(O)c(O)c(O)c2)C1)c1cc(O)c(O)c(O)c1
IC50 [1]: 2790 nM

Cc1c(C)c2c(c(C)c1O)CC[C@@](C)(CCC[C@H](C)CCC[C@H](C)CCCC(C)C)O2 [ALPHA-TOCOPHEROL]
IC50 [2]: 911 µM

COc1cc(C(=O)NN=Cc2nc(-c3ccccc3)c[nH]2)cc(OC)c1OC
inhibition zone (IZ) (Pseudomonas aeruginosa): 17 mm | inhibition zone (IZ) (Escherichia coli): 17 mm

COC(=O)c1cc(O)c(O)c(O)c1 [GALLIC ACID METHYL ESTER]
IC50 [3]: 8.41 µM | IC50 (Human alphaherpesvirus 2): 224 nM | IC50 (Plasmodium falciparum): 30 µM | IC50 [4]: 7.2 µM

O=C(NN1C(=O)CSC1c1ccccc1Cl)c1cc(O)c(O)c(O)c1 (centres undefined)
MIC [5]: 0.79 µg/mL (≈ 2.07 µM)

CC1(C)S[C@@H]2[C@H](NC(=O)[C@H](N)c3ccccc3)C(=O)N2[C@H]1C(=O)O [AMPICILLIN]
inhibition zone (IZ) (Pseudomonas aeruginosa): 15 mm | inhibition zone (IZ) (Escherichia coli): 15 mm

C/C(=N/NC(=O)c1cc(O)c(O)c(O)c1)c1cc(Cl)ccc1O
IC50 [6]: 1.14 µg/mL (≈ 3.39 µM)

COc1cc([C@@H]2c3cc4c(cc3[C@H](O)[C@H]3COC(=O)[C@H]23)OCO4)cc(OC)c1OC [PODOFILOX]
IC50 (MCF7 [7]): 65 µM

CCCCCCCCCCCC[N+](C)(C)CCOCCO
IC50 [2]: 4820 µM | MIC (Bacillus subtilis [8]): 2400 µM | MBC (Bacillus subtilis [9]): 2400 µM

C/C(=N/NC(=O)c1cc(O)c(O)c(O)c1)c1ccccn1
IC50 [6]: 1.14 µg/mL (≈ 3.97 µM)

O=C(O[C@@H]1C[C@H](O)C[C@@H](O)[C@H]1O)c1cc(O)c(O)c(O)c1
IC50 [1]: 710 nM

CSc1nnc(C(=O)c2cc(O)c(O)c(O)c2)o1
IC50 [10]: 24.4 µM | IC50 [11]: 14.6 µM

CC/C(=C(\c1ccccc1)c1ccc(OCCN(C)C)cc1)c1ccccc1 [TAMOXIFEN]
IC50 (MCF7 [7]): 9 µM

CCCCCCOC(=O)c1cc(O)c(O)c(O)c1 [HEXYL GALLATE]
IC50 (Plasmodium falciparum): 110 µM

CCCCCCCCCC[N+](C)(C)CCO
MIC (Bacillus subtilis [8]): 1200 µM | MBC (Bacillus subtilis [9]): 1200 µM

O=C(O[C@@H]1C[C@@H](O)[C@@H](O)[C@H](OC(=O)c2cc(O)c(O)c(O)c2)C1)c1cc(O)c(O)c(O)c1
IC50 [1]: 330 nM

O=C(N/N=C/c1c[nH]c2ccc(Br)cc12)c1cc(O)c(O)c(O)c1
IC50 [2]: 172 µM | IC50 (MCF7 [12]): 6.7 µM | IC50 (HCT-116 [13]): 13.3 µM

COc1cc(C(=O)N/N=C/c2ccnc3ccccc23)cc(OC)c1OC
inhibition zone (IZ) (Pseudomonas aeruginosa): 17 mm | inhibition zone (IZ) (Escherichia coli): 17 mm

O=c1c(O[C@@H]2O[C@H](CO)[C@@H](O)[C@H](O)[C@H]2O)c(-c2ccc(O)c(O)c2)oc2cc(O)cc(O)c12 [ISOQUERCETIN]
IC50 (Rattus norvegicus): 972 µM

COC1=CC(=O)C[C@@H](C)[C@]12Oc1c(Cl)c(OC)cc(OC)c1C2=O [GRISEOFULVIN]
inhibition zone (IZ) (Escherichia coli): 22 mm

COc1cc(C(=O)N/N=C/c2ccc(-c3ccccn3)cc2)cc(OC)c1OC
inhibition zone (IZ) (Pseudomonas aeruginosa): 17 mm | inhibition zone (IZ) (Escherichia coli): 17 mm

COc1cc2c(cc1Cc1cccc(Cl)c1F)c(=O)c(C(=O)O)cn2[C@H](CO)C(C)C [ELVITEGRAVIR]
IC50 [14]: > 100 µM

COc1ccc(O)c(/C(C)=N\NC(=O)c2cc(O)c(O)c(O)c2)c1
IC50 [6]: 1.14 µg/mL (≈ 3.43 µM)

CC(=O)O[C@H]1C(=O)[C@@]2(C)[C@H]([C@H](OC(=O)c3ccccc3)[C@]3(O)C[C@H](OC(=O)[C@H](O)[C@@H](NC(=O)c4ccccc4)c4ccccc4)C(C)=C1C3(C)C)[C@]1(OC(C)=O)CO[C@@H]1C[C@@H]2O [PACLITAXEL]
IC50 (HCT-116 [15]): 0.915 µg/mL (≈ 1.07 µM) | IC50 (HepG2): 0.66 µg/mL (≈ 0.773 µM) | IC50 (MCF7 [7]): 0.0025 µM
